{"source": "patent US12485093B2", "about": "“Composition for use as an antiviral in the form of nasal drops and in nebulisers” (DERMOPARTNERS, S.L., priority 2021, dated 2025)", "origin": "cited, not measured here", "tested_on": "SARS-CoV-2", "details": "concentration of 5% m/v", "data": [{"smiles": "OC[C@@H](O)[C@H](O)[C@@H](O)CO", "note": "[xylitol]", "values": [{"measurement": "viricidal and antiviral activity on SARS-CoV-2", "value": "viricidal and exhibit antiviral activity"}]}]}
